In patent US20040121946A9, “Inducing cellular immune responses to her2/neu using peptide and nucleic acid compositions” (priority 2002, published 2004):
Like-named read-outs stand apart in the source and are kept apart here. Where a SMILES comes first, the peptide text is derived from it. Where no end group is shown, it is not given here.

Legend:
HLA-B*0702 = HLA-B*0702 (Homo sapiens, UniProt P01889); format: binding
[1] = system: B7-supertype molecules (B*0702, B*3501, B*5101, B*5301, B*5401); assay: B7-supertype cross-reactive binding; set-up: species or system human; conditions: of five B7-supertype alleles tested
[2] = Table XXIV, B7 supermotif peptides

Compound: CC[C@H](C)[C@H](NC(=O)[C@@H](NC(=O)[C@@H](NC(=O)[C@H](CCC(=O)O)NC(=O)[C@H](CCC(N)=O)NC(=O)[C@H](CC(N)=O)NC(=O)[C@H](Cc1c[nH]cn1)NC(=O)[C@H](CC(C)C)NC(=O)[C@@H]1CCCN1C(=O)[C@@H](N)CS)C(C)C)[C@@H](C)O)C(=O)O [Her2/neu.315.I10]
- IC50 (HLA-B*0702; [2]): 0.458 µM
- No. of B7 Alleles Crossbound [1]: 3

Compound: CC[C@H](C)[C@H](NC(=O)[C@@H](NC(=O)[C@H](Cc1c[nH]cn1)NC(=O)[C@H](CC(C)C)NC(=O)[C@H](CC(C)C)NC(=O)[C@H](C)NC(=O)[C@H](CCC(N)=O)NC(=O)[C@H](Cc1c[nH]cn1)NC(=O)[C@@H]1CCCN1C(=O)[C@@H](N)Cc1ccccc1)[C@@H](C)O)C(=O)O [Her2/neu.488.F1I10]
- IC50 (HLA-B*0702; [2]): 0.086 µM
- No. of B7 Alleles Crossbound [1]: 4

Compound: CC[C@H](C)[C@H](NC(=O)CNC(=O)[C@H](C)NC(=O)[C@@H]1CCCN1C(=O)[C@H](CCCNC(=N)N)NC(=O)[C@H](C)NC(=O)[C@H](C)NC(=O)[C@@H]1CCCN1C(=O)[C@@H](N)Cc1ccccc1)C(=O)O [Her2/neu.1157.F1I9]
- IC50 (HLA-B*0702; [2]): 0.0093 µM
- No. of B7 Alleles Crossbound [1]: 3

Compound: CC(C)[C@H](NC(=O)[C@H](Cc1ccc(O)cc1)NC(=O)CNC(=O)[C@H](CC(=O)O)NC(=O)[C@@H](NC(=O)[C@H](CCC(=O)O)NC(=O)[C@H](CO)NC(=O)[C@@H]1CCCN1C(=O)[C@@H](N)Cc1ccccc1)[C@@H](C)O)C(=O)O [Her2/neu.1120.F1]
- IC50 (HLA-B*0702; [2]): 0.204 µM
- No. of B7 Alleles Crossbound [1]: 3

Compound: FPLPAARPI [Her2/neu.1155.F1I9]
- IC50 (HLA-B*0702; [2]): 0.0065 µM
- No. of B7 Alleles Crossbound [1]: 4

Compound: MPYGCLLDHVI [Her2/neu.801.I11]
- IC50 (HLA-B*0702; [2]): 0.066 µM
- No. of B7 Alleles Crossbound [1]: 5

Compound: CC[C@H](C)[C@H](NC(=O)[C@@H]1CCCN1C(=O)[C@H](CCSC)NC(=O)[C@H](Cc1ccc(O)cc1)NC(=O)[C@H](CO)NC(=O)[C@H](CC(C)C)NC(=O)[C@H](CC(=O)O)NC(=O)[C@@H]1CCCN1C(=O)[C@@H](N)Cc1ccccc1)C(=O)O [Her2/neu.605.F1]
- IC50 (HLA-B*0702; [2]): 0.022 µM
- No. of B7 Alleles Crossbound [1]: 5

Compound: CC(C)C[C@H](NC(=O)[C@@H](NC(=O)[C@H](C)NC(=O)CNC(=O)[C@H](C)NC(=O)[C@@H]1CCCN1C(=O)[C@H](CCCNC(=N)N)NC(=O)[C@H](C)NC(=O)[C@H](C)NC(=O)[C@@H]1CCCN1C(=O)[C@@H](N)Cc1ccccc1)[C@@H](C)O)C(=O)O [Her2/neu.1157.F1]
- IC50 (HLA-B*0702; [2]): 0.0039 µM
- No. of B7 Alleles Crossbound [1]: 4

Compound: CC(C)C[C@H](NC(=O)[C@@H]1CCCN1C(=O)[C@H](CO)NC(=O)[C@H](C)NC(=O)[C@@H]1CCCN1C(=O)[C@@H](N)Cc1ccccc1)C(=O)N[C@@H](CC(=O)O)C(=O)N[C@@H](CO)C(=O)N[C@H](C(=O)N[C@@H](Cc1ccccc1)C(=O)O)[C@@H](C)O [Her2/neu.995.F1]
- IC50 (HLA-B*0702; [2]): 0.0037 µM
- No. of B7 Alleles Crossbound [1]: 4

Compound: CC[C@H](C)[C@H](NC(=O)[C@H](CS)NC(=O)[C@H](CCCNC(=N)N)NC(=O)[C@H](CO)NC(=O)CNC(=O)[C@H](CCCCN)NC(=O)[C@H](CS)NC(=O)[C@H](CCSC)NC(=O)[C@@H]1CCCN1C(=O)[C@@H](N)Cc1ccccc1)C(=O)O [Her2/neu.196.F1] (H-FPMCKGSRCI-OH; N-terminus and C-terminus assumed)
- No. of B7 Alleles Crossbound [1]: 3

Compound: FPSGVKPDI [Her2/neu.600.F1I9]
- IC50 (HLA-B*0702; [2]): 0.0063 µM
- No. of B7 Alleles Crossbound [1]: 3

Compound: CC[C@H](C)[C@H](NC(=O)[C@H](CO)NC(=O)[C@H](CC(C)C)NC(=O)[C@H](CC(=O)O)NC(=O)[C@@H]1CCCN1C(=O)[C@H](CCCCN)NC(=O)[C@@H](NC(=O)CNC(=O)[C@H](CO)NC(=O)[C@@H]1CCCN1C(=O)[C@@H](N)Cc1ccccc1)C(C)C)C(=O)O [Her2/neu.600.F1I11]
- IC50 (HLA-B*0702; [2]): 0.196 µM
- No. of B7 Alleles Crossbound [1]: 4

Compound: CC[C@H](C)[C@H](NC(=O)[C@H](CC(=O)O)NC(=O)[C@@H]1CCCN1C(=O)[C@H](CC(C)C)NC(=O)[C@H](CO)NC(=O)[C@H](CC(=O)O)NC(=O)[C@@H]1CCCN1C(=O)[C@@H](N)Cc1c[nH]c2ccccc12)C(=O)O [Her2/neu.415.I8]
- IC50 (HLA-B*0702): 0.071 µM
- No. of B7 Alleles Crossbound [1]: 1

Compound: CC(C)C[C@H](NC(=O)[C@@H]1CCCN1C(=O)[C@@H](N)Cc1ccccc1)C(=O)N1CCC[C@H]1C(=O)N[C@@H](C)C(=O)N[C@@H](C)C(=O)N[C@@H](CCCNC(=N)N)C(=O)N1CCC[C@H]1C(=O)N[C@@H](C)C(=O)O [Her2/neu.1155.F1]
- IC50 (HLA-B*0702; [2]): 0.034 µM
- No. of B7 Alleles Crossbound [1]: 3

Compound: FPLAPSEGI [Her2/neu.1073.F1I9]
- IC50 (HLA-B*0702; [2]): 0.1 µM
- No. of B7 Alleles Crossbound [1]: 4

Compound: CC[C@H](C)[C@H](NC(=O)[C@H](CO)NC(=O)[C@@H](NC(=O)[C@H](CC(C)C)NC(=O)[C@@H]1CCCN1C(=O)[C@@H](N)CO)[C@@H](C)O)C(=O)N[C@H](C(=O)N[C@@H](CO)C(=O)N[C@@H](C)C(=O)N[C@H](C(=O)O)C(C)C)[C@@H](C)CC [Her2/neu.649]
- IC50 (HLA-B*0702; [2]): 0.061 µM
- No. of B7 Alleles Crossbound [1]: 1

Compound: CC[C@H](C)[C@H](NC(=O)[C@H](C)NC(=O)CNC(=O)[C@H](CO)NC(=O)[C@@H]1CCCN1C(=O)[C@@H](NC(=O)[C@H](CC(C)C)NC(=O)[C@@H]1CCCN1C(=O)[C@@H](N)Cc1ccccc1)[C@@H](C)O)C(=O)O [Her2/neu.698.F1I9]
- IC50 (HLA-B*0702; [2]): 0.0009 µM
- No. of B7 Alleles Crossbound [1]: 3

Compound: CC[C@H](C)[C@H](NC(=O)[C@H](CO)NC(=O)[C@H](CC(C)C)NC(=O)[C@H](CC(=O)O)NC(=O)[C@@H]1CCCN1C(=O)[C@H](CCCCN)NC(=O)[C@@H](NC(=O)CNC(=O)[C@H](CO)NC(=O)[C@@H]1CCCN1C(=O)[C@@H](N)CS)C(C)C)C(=O)O [Her2/neu.600.I11]
- IC50 (HLA-B*0702; [2]): 0.29 µM
- No. of B7 Alleles Crossbound [1]: 3

Compound: FPYDGIPA [Her2/neu.921.F1]
- IC50 (HLA-B*0702): 0.423 µM
- No. of B7 Alleles Crossbound [1]: 4

Compound: CC[C@H](C)[C@H](NC(=O)[C@H](CO)NC(=O)[C@@H](NC(=O)[C@@H](NC(=O)[C@H](CO)NC(=O)[C@@H](NC(=O)[C@H](CC(C)C)NC(=O)[C@@H]1CCCN1C(=O)[C@@H](N)CO)[C@@H](C)O)[C@@H](C)CC)[C@@H](C)CC)C(=O)O [Her2/neu.649.I9]
- IC50 (HLA-B*0702; [2]): 0.086 µM
- No. of B7 Alleles Crossbound [1]: 3

Compound: FPGKNGVI [Her2/neu.1174.F1I8]
- IC50 (HLA-B*0702; [2]): 0.458 µM
- No. of B7 Alleles Crossbound [1]: 3

Compound: CC[C@H](C)[C@H](NC(=O)[C@@H](NC(=O)[C@H](C)NC(=O)[C@H](CO)NC(=O)[C@@H](NC(=O)[C@@H](NC(=O)[C@H](CO)NC(=O)[C@@H](NC(=O)[C@H](CC(C)C)NC(=O)[C@@H]1CCCN1C(=O)[C@@H](N)Cc1ccccc1)[C@@H](C)O)[C@@H](C)CC)[C@@H](C)CC)C(C)C)C(=O)O [Her2/neu.649.F1I11]
- IC50 (HLA-B*0702; [2]): 0.367 µM
- No. of B7 Alleles Crossbound [1]: 5

Compound: CC[C@H](C)[C@H](NC(=O)[C@H](CO)NC(=O)[C@H](CCCNC(=N)N)NC(=O)[C@H](Cc1ccc(O)cc1)NC(=O)[C@H](Cc1ccccc1)NC(=O)[C@@H](NC(=O)[C@H](CO)NC(=O)[C@H](CC(=O)O)NC(=O)[C@H](CC(C)C)NC(=O)[C@@H]1CCCN1C(=O)[C@@H](N)Cc1ccccc1)[C@@H](C)O)C(=O)O [Her2/neu.998.F1I11]
- IC50 (HLA-B*0702; [2]): 0.229 µM
- No. of B7 Alleles Crossbound [1]: 3

Compound: CC[C@H](C)[C@H](NC(=O)[C@H](C)NC(=O)[C@H](CO)NC(=O)[C@@H](NC(=O)[C@@H](NC(=O)[C@H](CO)NC(=O)[C@@H](NC(=O)[C@H](CC(C)C)NC(=O)[C@@H]1CCCN1C(=O)[C@@H](N)Cc1ccccc1)[C@@H](C)O)[C@@H](C)CC)[C@@H](C)CC)C(=O)O [Her2/neu.649.F1I10]
- IC50 (HLA-B*0702; [2]): 0.229 µM
- No. of B7 Alleles Crossbound [1]: 5

Compound: CC[C@H](C)[C@H](NC(=O)[C@@H]1CCCN1C(=O)[C@H](CC(C)C)NC(=O)[C@@H]1CCCN1C(=O)CNC(=O)[C@H](CCC(=O)O)NC(=O)[C@H](CCCNC(=N)N)NC(=O)[C@@H]1CCCN1C(=O)[C@H](CO)NC(=O)[C@@H]1CCCN1C(=O)[C@@H](N)Cc1ccccc1)C(=O)O [Her2/neu.1149.F1I11]
- IC50 (HLA-B*0702; [2]): 0.19 µM
- No. of B7 Alleles Crossbound [1]: 3

Compound: CC[C@H](C)[C@H](NC(=O)[C@@H](NC(=O)[C@H](CCCNC(=N)N)NC(=O)[C@H](CCSC)NC(=O)[C@H](CCC(N)=O)NC(=O)[C@H](C)NC(=O)[C@H](CCC(N)=O)NC(=O)[C@H](CC(N)=O)NC(=O)[C@@H]1CCCN1C(=O)[C@@H](N)Cc1ccccc1)[C@@H](C)CC)C(=O)O [Her2/neu.706.F1I10]
- IC50 (HLA-B*0702; [2]): 0.29 µM
- No. of B7 Alleles Crossbound [1]: 4

Compound: FPAEQRASPI [Her2/neu.642.F1I10]
- IC50 (HLA-B*0702; [2]): 0.0031 µM
- No. of B7 Alleles Crossbound [1]: 3

Compound: CC[C@H](C)[C@H](NC(=O)[C@H](Cc1ccccc1)NC(=O)[C@H](CO)NC(=O)[C@H](CC(C)C)NC(=O)[C@H](CO)NC(=O)[C@H](C)NC(=O)[C@H](CC(N)=O)NC(=O)[C@@H](NC(=O)[C@@H]1CCCN1C(=O)[C@@H](N)Cc1ccccc1)[C@@H](C)O)C(=O)O [Her2/neu.65.F1I10]
- IC50 (HLA-B*0702; [2]): 0.12 µM

Compound: FPLNNTTPV [Her2/neu.121.F1]
- IC50 (HLA-B*0702; [2]): 0.0002 µM

Compound: CC[C@H](C)[C@H](NC(=O)[C@H](CO)NC(=O)[C@@H](NC(=O)[C@@H](NC(=O)[C@H](CO)NC(=O)[C@@H](NC(=O)[C@H](CC(C)C)NC(=O)[C@@H]1CCCN1C(=O)[C@@H](N)Cc1ccccc1)[C@@H](C)O)[C@@H](C)CC)[C@@H](C)CC)C(=O)O [Her2/neu.649.F1I9]
- No. of B7 Alleles Crossbound [1]: 5

Compound: CC[C@H](C)[C@H](NC(=O)[C@H](CO)NC(=O)[C@H](CC(C)C)NC(=O)[C@H](CO)NC(=O)[C@H](C)NC(=O)[C@H](CC(N)=O)NC(=O)[C@@H](NC(=O)[C@@H]1CCCN1C(=O)[C@@H](N)Cc1ccccc1)[C@@H](C)O)C(=O)O [Her2/neu.65.F1I9]
- IC50 (HLA-B*0702; [2]): 0.0046 µM
